According to US20250002458A1, “SALT FORMS OF […]” (UNICYCIVE THERAPEUTICS INC., priority 2023, published 2025):
Where a name gives a salt, the structure may show the parent alone.

Tests used:
[1] = Stability of select salts of Compound 1 at 5, 25 and 40° C. over 6 months, purity by HPLC; assay type: physicochemical
Description: A description of the salt and the purity as determined by HPLC are provided initially and at the 1st, 2nd, 3rd, and 6th month for each salt.
Preparation of test solution: About 50.0 mg of test sample was weighed into a 25 mL of volumetric flask and diluent (10 mL) was added. The mixture was sonicated to dissolve sample and diluted up to mark with diluent and mixed well.

[2] = Photostability of iodide and nitrate salts (control, UV, visible); assay type: physicochemical; settings: for Total impurities: photostability
Description: The photostability of Compound 1 iodide salt and Compound 1 nitrate salt were tested.
The photostability of Compound 2 iodide salt and Compound 2 nitrate salt were tested.

C[C@H](NC(=O)OC[n+]1cccc(C(=O)NCCO[N+](=O)[O-])c1)C1CCCCC1 [Compound 1 Triflate Salt]
Purity ([1]; 5° C., 1st Month): 95.0 | Purity ([1]; 5° C., 2nd Month): 95.0 | Purity ([1]; 5° C., 3rd Month): 94.8 | Purity ([1]; 5° C., 6th Month): 96.1 | Purity ([1]; 5° C., Initial): 96.6 | Purity ([1]; 25° C., 1st Month): 94.4 | Purity ([1]; 25° C., 2nd Month): 91.1 | Purity ([1]; 25° C., 3rd Month): 85.8 | Purity ([1]; 25° C., 6th Month): 78.5 | Purity ([1]; 25° C., Initial): 96.6

C[C@H](NC(=O)OC[n+]1cccc(C(=O)NCCO[N+](=O)[O-])c1)C1CCCCC1 [Compound 1 Trifluoroacetate Salt]
Purity ([1]; 5° C., 1st Month): 97.2 | Purity ([1]; 5° C., 2nd Month): 96.6 | Purity ([1]; 5° C., 3rd Month): 97.0 | Purity ([1]; 5° C., 6th Month): 97.2 | Purity ([1]; 5° C., Initial): 98.6 | Purity ([1]; 25° C., 1st Month): 96.5 | Purity ([1]; 25° C., 2nd Month): 94.6 | Purity ([1]; 25° C., 3rd Month): 92.2 | Purity ([1]; 25° C., 6th Month): 85.9 | Purity ([1]; 25° C., Initial): 98.6

C[C@H](NC(=O)OC[n+]1cccc(C(=O)NCCO[N+](=O)[O-])c1)C1CCCCC1 [Compound 1 4-Nitrobesylate Salt]
Purity ([1]; 5° C., 1st Month): 98.1 | Purity ([1]; 5° C., 2nd Month): 98.1 | Purity ([1]; 5° C., 3rd Month): 97.8 | Purity ([1]; 5° C., 6th Month): 97.9 | Purity ([1]; 5° C., Initial): 98.1 | Purity ([1]; 25° C., 1st Month): 97.2 | Purity ([1]; 25° C., 2nd Month): 93.1 | Purity ([1]; 25° C., 3rd Month): 86.8 | Purity ([1]; 25° C., 6th Month): 80.3 | Purity ([1]; 25° C., Initial): 98.1

C[C@H](NC(=O)OC[n+]1cccc(C(=O)NCCO[N+](=O)[O-])c1)C1CCCCC1 [Compound 1 4-Bromobesylate Salt]
Purity ([1]; 5° C., 1st Month): 91.0 | Purity ([1]; 5° C., 2nd Month): 93.1 | Purity ([1]; 5° C., 3rd Month): 89.6 | Purity ([1]; 5° C., 6th Month): 86.6 | Purity ([1]; 5° C., Initial): 98.4 | Purity ([1]; 25° C., 1st Month): 89.0 | Purity ([1]; 25° C., 2nd Month): 84.2 | Purity ([1]; 25° C., 3rd Month): 76.8 | Purity ([1]; 25° C., 6th Month): 67.6 | Purity ([1]; 25° C., Initial): 98.4

C[C@H](NC(=O)OC[n+]1cccc(C(=O)NCCO[N+](=O)[O-])c1)C1CCCCC1 [Compound 1 iodide salt]
Total impurities ([2]; UV): 0.27 | Total impurities ([2]; Visible): 0.60 | Total impurities ([2]; control sample): 0.07

C[C@H](NC(=O)OC[n+]1cccc(C(=O)NCCO[N+](=O)[O-])c1)C1CCCCC1 [Compound 1 Perchlorate Salt]
Purity ([1]; 5° C., 1st Month): 96.3 | Purity ([1]; 5° C., 2nd Month): 93.0 | Purity ([1]; 5° C., 3rd Month): 95.7 | Purity ([1]; 5° C., 6th Month): 94.8 | Purity ([1]; 5° C., Initial): 97.6 | Purity ([1]; 25° C., 1st Month): 95.4 | Purity ([1]; 25° C., 2nd Month): 89.4 | Purity ([1]; 25° C., 3rd Month): 84.9 | Purity ([1]; 25° C., 6th Month): 74.8 | Purity ([1]; 25° C., Initial): 97.6

C[C@H](NC(=O)OC[n+]1cccc(C(=O)NCCO[N+](=O)[O-])c1)C1CCCCC1 [Compound 1 Sulphate Salt]
Purity ([1]; 5° C., 1st Month): 90.7 | Purity ([1]; 5° C., 2nd Month): 87.9 | Purity ([1]; 5° C., 3rd Month): 91.1 | Purity ([1]; 5° C., 6th Month): 90.9 | Purity ([1]; 5° C., Initial): 94.7 | Purity ([1]; 25° C., 1st Month): 90.0 | Purity ([1]; 25° C., 2nd Month): 56.9 | Purity ([1]; 25° C., 3rd Month): 33.7 | Purity ([1]; 25° C., 6th Month): 23.5 | Purity ([1]; 25° C., Initial): 94.7 | Purity ([1]; 40° C., 1st Month): 75.6 | Purity ([1]; 40° C., 2nd Month): 8.3 | Purity ([1]; 40° C., 3rd Month): 0.9 | Purity ([1]; 40° C., 6th Month): 1.5 | Purity ([1]; 40° C., Initial): 94.7

C[C@H](NC(=O)OC[n+]1cccc(C(=O)NCCO[N+](=O)[O-])c1)C1CCCCC1 [Compound 1 Esylate Salt]
Purity ([1]; 5° C., 1st Month): 92.7 | Purity ([1]; 5° C., 2nd Month): 92.3 | Purity ([1]; 5° C., 3rd Month): 91.5 | Purity ([1]; 5° C., 6th Month): 89.6 | Purity ([1]; 5° C., Initial): 95.4 | Purity ([1]; 25° C., 1st Month): 91.4 | Purity ([1]; 25° C., 2nd Month): 84.4 | Purity ([1]; 25° C., 3rd Month): 73.9 | Purity ([1]; 25° C., 6th Month): 58.7 | Purity ([1]; 25° C., Initial): 95.4

C[C@H](NC(=O)OC[n+]1cccc(C(=O)NCCO[N+](=O)[O-])c1)C1CCCCC1 [Compound 1 Besylate Salt]
Purity ([1]; 5° C., 1st Month): 88.8 | Purity ([1]; 5° C., 2nd Month): 88.6 | Purity ([1]; 5° C., 3rd Month): 87.5 | Purity ([1]; 5° C., 6th Month): 86.9 | Purity ([1]; 5° C., Initial): 96.6 | Purity ([1]; 25° C., 1st Month): 87.1 | Purity ([1]; 25° C., 2nd Month): 79.3 | Purity ([1]; 25° C., 3rd Month): 66.7 | Purity ([1]; 25° C., 6th Month): 51.2 | Purity ([1]; 25° C., Initial): 96.6

C[C@H](NC(=O)OC[n+]1cccc(C(=O)NCCO[N+](=O)[O-])c1)C1CCCCC1 [Compound 1 Phosphate Salt]
Purity ([1]; 5° C., 1st Month): 95.8 | Purity ([1]; 5° C., 2nd Month): 93.8 | Purity ([1]; 5° C., 3rd Month): 94.6 | Purity ([1]; 5° C., 6th Month): 94.5 | Purity ([1]; 5° C., Initial): 96.5 | Purity ([1]; 25° C., 1st Month): 93.3 | Purity ([1]; 25° C., 2nd Month): 83.7 | Purity ([1]; 25° C., 3rd Month): 78.2 | Purity ([1]; 25° C., 6th Month): 69.4 | Purity ([1]; 25° C., Initial): 96.5 | Purity ([1]; 40° C., 1st Month): 91.4 | Purity ([1]; 40° C., 2nd Month): 63.1 | Purity ([1]; 40° C., 3rd Month): 50.9 | Purity ([1]; 40° C., 6th Month): 50.5 | Purity ([1]; 40° C., Initial): 96.5

C[C@H](NC(=O)OC[n+]1cccc(C(=O)NCCO[N+](=O)[O-])c1)C1CCCCC1 [Compound 1 nitrate salt]
Total impurities compared with the iodide salt ([2]; exposed to both UV and visible light): less than the impurities in Compound 1 iodide salt | Total impurities ([2]; UV): 0.21 | Total impurities ([2]; Visible): 0.16 | Total impurities ([2]; control sample): 0.06
